PubChem BioAssay AID1963854 (Molecular Pharmacology Branch, DTP, NCI, 2024)

System: 186277-243-T-J2-PDC complex spheroid viability
Test: Anticancer human tumor 186277-243-T-J2-PDC patient-derived colon adenocarcinoma cell line growth inhibition [POLQ]
Conditions: for IC50: curve of first compound; for viability, T/C: stronger effect = lower value
How it was run: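 Complex spheroid viability model combining PDC tumour cells with endothelial (HUVEC) and MSC stromal cells. Novobiocin, ART-558 or RP6685 were tested singly and in combination with standard and investigational anticancer drugs. Each was titrated in half-log steps from near clinical Cmax, or from 10 microM where Cmax was unknown.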

[1] = second compound 0.0316 µM, first compound 0.0316 µM
[2] = second compound 0.0316 µM, first compound 0.1 µM
[3] = second compound 0.0316 µM, first compound 0.316 µM
[4] = second compound 0.0316 µM, first compound 1 µM
[5] = second compound 0.0316 µM, first compound 3.16 µM
[6] = second compound 0.0316 µM, first compound 10 µM
[7] = second compound 0.1 µM, first compound 0.0316 µM
[8] = second compound 0.1 µM, first compound 0.1 µM
[9] = second compound 0.1 µM, first compound 0.316 µM
[10] = second compound 0.1 µM, first compound 1 µM
[11] = second compound 0.1 µM, first compound 3.16 µM
[12] = second compound 0.1 µM, first compound 10 µM
[13] = second compound 0.316 µM, first compound 0.0316 µM
[14] = second compound 0.316 µM, first compound 0.1 µM
[15] = second compound 0.316 µM, first compound 0.316 µM
[16] = second compound 0.316 µM, first compound 1 µM
[17] = second compound 0.316 µM, first compound 3.16 µM
[18] = second compound 0.316 µM, first compound 10 µM
[19] = second compound 1 µM, first compound 0.0316 µM
[20] = second compound 1 µM, first compound 0.1 µM
[21] = second compound 1 µM, first compound 0.316 µM
[22] = second compound 1 µM, first compound 1 µM
[23] = second compound 1 µM, first compound 3.16 µM
[24] = second compound 1 µM, first compound 10 µM
[25] = second compound 3.16 µM, first compound 0.0316 µM
[26] = second compound 3.16 µM, first compound 0.1 µM
[27] = second compound 3.16 µM, first compound 0.316 µM
[28] = second compound 3.16 µM, first compound 1 µM
[29] = second compound 3.16 µM, first compound 3.16 µM
[30] = second compound 3.16 µM, first compound 10 µM
[31] = second compound 10 µM, first compound 0.0316 µM
[32] = second compound 10 µM, first compound 0.1 µM
[33] = second compound 10 µM, first compound 0.316 µM
[34] = second compound 10 µM, first compound 1 µM
[35] = second compound 10 µM, first compound 3.16 µM
[36] = second compound 10 µM, first compound 10 µM
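Also: spheroids exposed to compounds for seven days.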
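For viability, T/C in this document: 100% = DMSO vehicle control viability.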

Q: With O=c1[nH]cc(F)c(=O)[nH]1 + COC1C(OC(N)=O)C(O)C(Oc2ccc3c(O)c(NC(=O)c4ccc(O)c(CC=C(C)C)c4)c(=O)oc3c2C)OC1(C)C as the molecule, how does the IC50 (second compound 0.0316 µM) read?
A: > 10 µM

Q: What about the IC50 (second compound 0.1 µM) of the same molecule?
A: > 10 µM

Q: And the IC50 (second compound 0.316 µM)?
A: > 10 µM

Q: What about the IC50 (second compound 1 µM) of the same molecule?
A: 9.82 µM

Q: What about the IC50 (second compound 3.16 µM) of the same molecule?
A: 9.69 µM

Q: What about the IC50 (second compound 10 µM) of the same molecule?
A: 9.8 µM

Q: And the viability, T/C [1]?
A: 88%

Q: What about the viability, T/C [2] of the same molecule?
A: 100%

Q: What about the viability, T/C [3] of the same molecule?
A: 104%

Q: And the viability, T/C [4]?
A: 106%

Q: And the viability, T/C [5]?
A: 70%

Q: And the viability, T/C [6]?
A: 49.9%

Q: What about the viability, T/C [7] of the same molecule?
A: 92%

Q: And the viability, T/C [8]?
A: 105%

Q: And the viability, T/C [9]?
A: 104%

Q: What about the viability, T/C [10] of the same molecule?
A: 100%

Q: What about the viability, T/C [11] of the same molecule?
A: 70%

Q: And the viability, T/C [12]?
A: 52%

Q: What about the viability, T/C [13] of the same molecule?
A: 104%

Q: What about the viability, T/C [14] of the same molecule?
A: 108%

Q: And the viability, T/C [15]?
A: 114%

Q: What about the viability, T/C [16] of the same molecule?
A: 119%

Q: And the viability, T/C [17]?
A: 69.3%

Q: And the viability, T/C [18]?
A: 49.6%

Q: What about the viability, T/C [19] of the same molecule?
A: 109%

Q: And the viability, T/C [20]?
A: 111%

Q: And the viability, T/C [21]?
A: 86.2%

Q: And the viability, T/C [22]?
A: 102%

Q: And the viability, T/C [23]?
A: 69%

Q: What about the viability, T/C [24] of the same molecule?
A: 49.8%

Q: What about the viability, T/C [25] of the same molecule?
A: 102%

Q: What about the viability, T/C [26] of the same molecule?
A: 115%

Q: What about the viability, T/C [27] of the same molecule?
A: 109%

Q: What about the viability, T/C [28] of the same molecule?
A: 107%

Q: What about the viability, T/C [29] of the same molecule?
A: 66.9%

Q: And the viability, T/C [30]?
A: 49.1%

Q: What about the viability, T/C [31] of the same molecule?
A: 117%

Q: What about the viability, T/C [32] of the same molecule?
A: 97.2%

Q: And the viability, T/C [33]?
A: 108%

Q: And the viability, T/C [34]?
A: 105%

Q: And the viability, T/C [35]?
A: 73.5%

Q: And the viability, T/C [36]?
A: 49.6%

Q: What does the source list for CCCS(=O)(=O)Nc1ccc(F)c(C(=O)c2c[nH]c3ncc(-c4ccc(Cl)cc4)cc23)c1F + COC1C(OC(N)=O)C(O)C(Oc2ccc3c(O)c(NC(=O)c4ccc(O)c(CC=C(C)C)c4)c(=O)oc3c2C)OC1(C)C?
A: IC50 (second compound 0.0316 µM): 8.12 µM; IC50 (second compound 0.1 µM): 7.84 µM; IC50 (second compound 0.316 µM): > 10 µM; IC50 (second compound 1 µM): 7.81 µM; IC50 (second compound 3.16 µM): 9.15 µM; IC50 (second compound 10 µM): > 10 µM; viability, T/C [1]: 95%; viability, T/C [2]: 90%; viability, T/C [3]: 86.5%; viability, T/C [4]: 93.4%; viability, T/C [5]: 88.5%; viability, T/C [6]: 41.5%; viability, T/C [7]: 98.4%; viability, T/C [8]: 76.9%; viability, T/C [9]: 96.2%; viability, T/C [10]: 79.7%; viability, T/C [11]: 87.7%; viability, T/C [12]: 39.9%; viability, T/C [13]: 91.4%; viability, T/C [14]: 90.4%; viability, T/C [15]: 89.7%; viability, T/C [16]: 92.8%; viability, T/C [17]: 101%; viability, T/C [18]: 52%; viability, T/C [19]: 91.2%; viability, T/C [20]: 97.2%; viability, T/C [21]: 86.6%; viability, T/C [22]: 86.8%; viability, T/C [23]: 97.6%; viability, T/C [24]: 38.5%; viability, T/C [25]: 92.2%; viability, T/C [26]: 96.6%; viability, T/C [27]: 93.5%; viability, T/C [28]: 90.6%; viability, T/C [29]: 88%; viability, T/C [30]: 46.7%; viability, T/C [31]: 118%; viability, T/C [32]: 89.7%; viability, T/C [33]: 93.6%; viability, T/C [34]: 94%; viability, T/C [35]: 92%; viability, T/C [36]: 50.3%

Q: Which results are given for Cn1ncnc1[C@H]1c2n[nH]c(=O)c3cc(F)cc(c23)N[C@@H]1c1ccc(F)cc1 + Nc1ccc(C#CCN(C(=O)Cc2ncc(C(F)(F)F)cc2C(F)(F)F)c2ccc(F)cc2)nn1?
A: IC50 (second compound 0.0316 µM): > 0.1 µM; IC50 (second compound 0.1 µM): > 0.1 µM; IC50 (second compound 0.316 µM): > 0.1 µM; IC50 (second compound 1 µM): > 0.1 µM; IC50 (second compound 3.16 µM): > 0.1 µM; IC50 (second compound 10 µM): > 0.1 µM; viability, T/C (second compound 0.0316 µM, first compound 0.000316 µM): 101%; viability, T/C (second compound 0.0316 µM, first compound 0.001 µM): 90.9%; viability, T/C (second compound 0.0316 µM, first compound 0.00316 µM): 110%; viability, T/C (second compound 0.0316 µM, first compound 0.01 µM): 113%; viability, T/C [1]: 130%; viability, T/C [2]: 124%; viability, T/C (second compound 0.1 µM, first compound 0.000316 µM): 103%; viability, T/C (second compound 0.1 µM, first compound 0.001 µM): 101%; viability, T/C (second compound 0.1 µM, first compound 0.00316 µM): 111%; viability, T/C (second compound 0.1 µM, first compound 0.01 µM): 105%; viability, T/C [7]: 125%; viability, T/C [8]: 142%; viability, T/C (second compound 0.316 µM, first compound 0.000316 µM): 87.5%; viability, T/C (second compound 0.316 µM, first compound 0.001 µM): 110%; viability, T/C (second compound 0.316 µM, first compound 0.00316 µM): 102%; viability, T/C (second compound 0.316 µM, first compound 0.01 µM): 111%; viability, T/C [13]: 119%; viability, T/C [14]: 143%; viability, T/C (second compound 1 µM, first compound 0.000316 µM): 91.3%; viability, T/C (second compound 1 µM, first compound 0.001 µM): 116%; viability, T/C (second compound 1 µM, first compound 0.00316 µM): 103%; viability, T/C (second compound 1 µM, first compound 0.01 µM): 106%; viability, T/C [19]: 120%; viability, T/C [20]: 126%; viability, T/C (second compound 3.16 µM, first compound 0.000316 µM): 92.3%; viability, T/C (second compound 3.16 µM, first compound 0.001 µM): 111%; viability, T/C (second compound 3.16 µM, first compound 0.00316 µM): 112%; viability, T/C (second compound 3.16 µM, first compound 0.01 µM): 105%; viability, T/C [25]: 116%; viability, T/C [26]: 140%; viability, T/C (second compound 10 µM, first compound 0.000316 µM): 93.4%; viability, T/C (second compound 10 µM, first compound 0.001 µM): 104%; viability, T/C (second compound 10 µM, first compound 0.00316 µM): 106%; viability, T/C (second compound 10 µM, first compound 0.01 µM): 103%; viability, T/C [31]: 117%; viability, T/C [32]: 121%
